From ChEMBL document CHEMBL4804286, “3-amino-4-(4-(4 (dimethylcarbamoyl) phenyl)-1,4-diazepan-1-yl) thieno [2,3-b] pyridine-2-carboxamide for use in cancer therapy and formulations comprising the same” (2020)
Activity calls are given as the source filed them. The calls are words filed in the database; no cut-off is given here.

Experiments:
[1] = tested on: 4T1; assay: Antitumor activity against murine 4T1 cells xenografted in mouse assessed as suppression of tumor volume at 50 mg/kg, po; format: functional, organism-based
[2] = tested on: Myc-CaP; assay: Inhibition of colony formation in murine castration-resistant Myc-CaP cells at 1 uM in presence of 5 uM enzalutamide by clonogenic assay relative to control; format: functional; conditions: Mus musculus
[3] = tested on: Myc-CaP; assay: Antiproliferative activity against murine castration-resistant Myc-CaP cells at 1 uM assessed as growth inhibition in presence of 5 uM enzalutamide relative to control; format: functional; conditions: Mus musculus
[4] = tested on: CWR22R; assay: Antitumor activity against human 22Rv1 cells expressing AR-V7 xenografted in male nude mouse assessed as suppression of tumor growth at 66 mg/kg, administered twice a day for 20 days; format: functional, organism-based
[5] = tested on: Myc-CaP; assay: Inhibition of colony formation in murine castration-resistant Myc-CaP cells at 1 uM by clonogenic assay; format: functional; conditions: Mus musculus
[6] = tested on: Myc-CaP; assay: Antiproliferative activity against murine castration-resistant Myc-CaP cells at 1 uM assessed as growth inhibition relative to control; format: functional; conditions: Mus musculus
[7] = tested on: CWR22R; assay: Antitumor activity against human 22Rv1 cells expressing AR-V7 xenografted in male nude mouse assessed as suppression of tumor growth at 133 mg/kg, administered once a day for 20 days; format: functional, organism-based
[8] = target: Cyclin-dependent kinase 8/19 (Homo sapiens, UniProt P49336+Q9BWU1); conditions: ST-2
Sequence of Cyclin-dependent kinase 8/19 (P49336 whole entry, looked up): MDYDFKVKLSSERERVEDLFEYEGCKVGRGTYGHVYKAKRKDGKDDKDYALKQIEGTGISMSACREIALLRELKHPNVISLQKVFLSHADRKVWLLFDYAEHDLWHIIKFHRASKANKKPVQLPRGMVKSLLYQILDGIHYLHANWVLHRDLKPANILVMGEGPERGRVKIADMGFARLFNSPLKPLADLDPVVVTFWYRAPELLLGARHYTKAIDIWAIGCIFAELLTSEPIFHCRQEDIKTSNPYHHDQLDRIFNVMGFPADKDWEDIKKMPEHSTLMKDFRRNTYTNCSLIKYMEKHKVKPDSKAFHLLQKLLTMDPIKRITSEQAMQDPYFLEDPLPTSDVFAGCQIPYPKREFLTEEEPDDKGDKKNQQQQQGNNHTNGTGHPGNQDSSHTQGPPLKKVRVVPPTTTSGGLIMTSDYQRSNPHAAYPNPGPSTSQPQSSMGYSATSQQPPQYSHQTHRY
Sequence of Cyclin-dependent kinase 8/19 (Q9BWU1 whole entry, looked up): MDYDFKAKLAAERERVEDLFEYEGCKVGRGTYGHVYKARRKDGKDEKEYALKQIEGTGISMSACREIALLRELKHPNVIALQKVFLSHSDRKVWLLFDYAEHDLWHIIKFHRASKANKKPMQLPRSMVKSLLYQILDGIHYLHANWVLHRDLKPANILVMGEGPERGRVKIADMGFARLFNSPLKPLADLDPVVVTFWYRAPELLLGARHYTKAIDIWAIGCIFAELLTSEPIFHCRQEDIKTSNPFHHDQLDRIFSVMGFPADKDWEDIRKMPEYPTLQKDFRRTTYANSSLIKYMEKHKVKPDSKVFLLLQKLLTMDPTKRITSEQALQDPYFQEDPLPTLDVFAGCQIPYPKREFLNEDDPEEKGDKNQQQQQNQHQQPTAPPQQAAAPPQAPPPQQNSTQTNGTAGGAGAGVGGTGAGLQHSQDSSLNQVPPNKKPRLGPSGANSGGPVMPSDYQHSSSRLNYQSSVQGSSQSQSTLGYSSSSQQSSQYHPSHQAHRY
Description: Inhibition of CDK8/CDK19 in ST2 cells by alkaline phosphatase activity assay

CN1CCN(C(=O)c2ccc3cc(CCNc4ncnc5ccc(C#N)cc45)ccc3c2)CC1 [SENEXIN B] was tested, and the Activity [1] was “Active”, the inhibition [2] was “Active” and the Activity [3] was “Active”. For the same compound, the Activity [4] was “Active”, the inhibition [5] was “Active” and the Activity [6] was “Active”. The Activity [7] was “Active”.
Work on CN(C)C(=O)Cc1ccc(N2CCCN(c3ccnc4sc(C(N)=O)c(N)c34)CC2)cc1 yielded an EC200 [8] of 6.6 nM.
With COc1ccc(N2CCCN(c3ccnc4sc(C(N)=O)c(N)c34)CC2)cc1 the EC200 [8] was 115 nM.
With Cc1ccc(N2CCCN(c3ccnc4sc(C(N)=O)c(N)c34)CC2)cc1 the EC200 [8] was 88.1 nM.
CNC(=O)c1ccc(N2CCCN(c3ccnc4sc(C(N)=O)c(N)c34)CC2)cc1 gave an EC200 [8] of 54.2 nM.
